Results as given in article PMC12050906 (Drug Development Research, 2025).

Legend:
12-lipoxygenase (12-LO) = 12-lipoxygenase (12-LO) (Homo sapiens, UniProt P18054); experiment: 12-HETE biosynthesis; assay type: cell-based
5-lipoxygenase (5-LO) = biological target: T1, 5-lipoxygenase (5-LO) (Homo sapiens, UniProt P09917); experiment: 5-LO product biosynthesis; assay type: cell-based
T1 sequence (P09917 1-674): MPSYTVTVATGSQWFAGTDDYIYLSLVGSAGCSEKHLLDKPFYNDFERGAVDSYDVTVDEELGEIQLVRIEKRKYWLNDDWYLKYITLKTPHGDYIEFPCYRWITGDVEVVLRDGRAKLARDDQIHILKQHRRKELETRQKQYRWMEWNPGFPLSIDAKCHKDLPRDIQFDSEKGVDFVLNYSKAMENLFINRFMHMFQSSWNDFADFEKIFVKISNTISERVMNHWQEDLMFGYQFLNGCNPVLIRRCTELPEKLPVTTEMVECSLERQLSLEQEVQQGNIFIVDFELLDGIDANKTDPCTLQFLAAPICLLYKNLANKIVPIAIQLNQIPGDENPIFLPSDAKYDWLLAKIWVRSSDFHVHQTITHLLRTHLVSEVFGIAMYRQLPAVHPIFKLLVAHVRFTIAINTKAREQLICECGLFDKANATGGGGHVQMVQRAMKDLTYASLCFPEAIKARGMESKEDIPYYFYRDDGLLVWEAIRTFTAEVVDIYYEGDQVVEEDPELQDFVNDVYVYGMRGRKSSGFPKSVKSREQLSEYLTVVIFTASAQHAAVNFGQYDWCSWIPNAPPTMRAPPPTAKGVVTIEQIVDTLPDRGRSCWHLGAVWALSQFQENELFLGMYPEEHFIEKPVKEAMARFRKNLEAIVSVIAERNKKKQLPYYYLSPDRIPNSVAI
T1 sequence (P20292 1-161 partner): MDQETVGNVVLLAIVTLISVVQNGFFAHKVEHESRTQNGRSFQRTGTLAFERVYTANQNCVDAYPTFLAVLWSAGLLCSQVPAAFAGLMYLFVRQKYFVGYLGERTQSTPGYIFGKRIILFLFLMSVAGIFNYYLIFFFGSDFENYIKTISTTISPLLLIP

Chain of 12-lipoxygenase (12-LO) (P18054 whole entry): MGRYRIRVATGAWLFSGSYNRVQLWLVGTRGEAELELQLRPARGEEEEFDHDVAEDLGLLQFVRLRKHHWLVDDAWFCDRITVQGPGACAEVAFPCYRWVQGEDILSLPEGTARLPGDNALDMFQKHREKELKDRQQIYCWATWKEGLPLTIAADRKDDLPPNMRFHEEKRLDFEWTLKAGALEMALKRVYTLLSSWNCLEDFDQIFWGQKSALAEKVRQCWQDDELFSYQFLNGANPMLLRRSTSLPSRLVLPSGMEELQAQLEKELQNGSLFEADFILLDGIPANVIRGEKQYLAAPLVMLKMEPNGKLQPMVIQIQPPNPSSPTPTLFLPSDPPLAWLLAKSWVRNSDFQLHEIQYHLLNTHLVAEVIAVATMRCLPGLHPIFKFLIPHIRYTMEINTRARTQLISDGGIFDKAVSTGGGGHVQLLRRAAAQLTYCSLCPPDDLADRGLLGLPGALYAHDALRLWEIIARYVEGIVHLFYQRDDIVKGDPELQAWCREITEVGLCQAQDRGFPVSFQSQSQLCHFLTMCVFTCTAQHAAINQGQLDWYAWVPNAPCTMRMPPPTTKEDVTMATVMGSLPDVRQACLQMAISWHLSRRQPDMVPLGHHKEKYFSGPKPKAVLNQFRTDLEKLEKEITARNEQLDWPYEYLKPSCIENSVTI

## O=C(/C=C/c1ccc(O)c(O)c1)OCCc1ccccc1 [compound 1, Caffeic acid phenethyl ester]
12-lipoxygenase (12-LO)
  % remaining at 1 μM: 74.3
5-lipoxygenase (5-LO)
  IC50: 1000 nM
